Consider three compounds from patent US10806729B2, “Quinoline derivatives for use in the treatment or prevention of viral infection” (ABIVAX, priority 2015, dated 2020).

One assay deals with HIV-1. The following applies: human PBMCs, increasing drug pressure. How it is done:
Resistance to Compound 22 was tested on human PBMCs and compared to current therapies. […] Various classes of antiviral agents can affect the life cycle of HIV-1 in different manners. […] The selection of drug resistant mutants in vitro can be readily accomplished by maintaining the virus in a state of sub-optimal growth, regulated by slowly increasing the amount of drug pressure applied. This technique mimics the consequences of drug therapy in patients. Therefore, in this way, novel compounds can be assessed for their selection profile in order to evaluate the likelihood of emergence of HIV-1 drug resistance in future clinical trials. In addition, combinations of drugs can be investigated in the same manner.

The test system of the next assay is HIV-1 strain YU2. Nature of the assay: HIV-1 p24 production in infected monocyte derived macrophages (ELISA). In kind it is cell-based. The following applies: Human immunodeficiency virus 1, Primary macrophage; primary macrophages infected with Yu-2, at 0.1 μM; read-out: inhibition levels of virus replication (p24). An excerpt: FIG. 1. Potency of quinoline derivatives to inhibit HIV-1 production in PBMC- and macrophages-infected cells. […] Each point represents 6 donors. B) HIV-1 strain YU2 was used to infect triplicate of monocyte derived-macrophages from different donors in the absence or presence of increasing concentrations of Compound 22. […] Each point represents 8 donors. To generate monocyte derived macrophages (MDMs), monocytes were isolated using CD14 microbeads (catalog no. 130-050-201; Miltenyi) and cultured in X-VIVO10 medium (Lonza) supplemented with GM-CSF 1000 U/ml and M-CSF 100 ng/ml for 6 days. Monocytes were seeded at a cell count of 50,000 cells per well in a 96 well plate. After 6 days medium was replaced with X-VIVO10 w/o Cytokines. After 2 days Macrophages were treated with Compound 22 and/or its N-glucuronide metabolite o/n and next day infected with Yu-2 virus for 6 hrs, washed with PBS and cultured in medium containing the compounds for 12 days. Supernatant for p24 Elisa was collected 2 times a week. Cells were treated with 0.01 μM up to 30 μM and p24 antigen levels were monitored in culture supernatant over a 12 day period. Cell culture supernatant HIV p24 titration was performed by ELISA with Ingen Innotest kit (Ingen Ref 80564) according to the manufacturer's instructions.
A general note: An ELISA detects its analyte on a solid surface through an enzyme-linked reagent.

Molecules are shown by their SMILES.

For the compound `C[C@H](Cn1cnc2c(N)ncnc21)OCP(=O)(O)O` [Tenofovir, reference compound], in the assay on HIV-1, the “Time of Selection (weeks)” value was 12 weeks.

With `Cc1ccnc2c1NC(=O)c1cccnc1N2C1CC1` [Nevirapine, reference compound], in the assay on HIV-1, the “Time of Selection (weeks)” value was determined as 3 weeks.

Regarding `O=C(O)[C@H]1O[C@@H](N(c2ccc(OC(F)(F)F)cc2)c2ccc3cccc(Cl)c3n2)[C@H](O)[C@@H](O)[C@@H]1O` [N-glucuronide metabolite], in the assay on HIV-1 strain YU2, the inhibition at 0.1 µM was not above 90%.

As a reminder, the inhibition is the drop in the measured response relative to a control, in per cent.
